Results taken from a melting point compilation (Tetko et al.; mined from patent text by program, amines drawn as free bases though some values may be those of a salt).

SMILES | melting point
CCOC(=O)C1=CC(C(=O)c2cc(Br)ccc2O)=CN2CCc3c([nH]c4ccccc34)C12C(=O)OCC (configuration not stated) | 215 °C
COc1cc(CO)c(OC)c(C)c1C | 71 to 72 °C
O=C(CCS)N[C@@H](Cc1c[nH]cn1)C(=O)O | 219 °C
CCOC(=O)c1cc(OCc2ccccc2)cc(OCc2ccccc2)c1 | 63 to 65 °C
NC(=O)c1ncn2c1NCCC2c1cccc(C(F)(F)F)c1 (configuration not stated) | 179 to 181 °C
N#Cc1ccc(Nc2cc(Cc3c(Cl)cccc3Cl)nc(NCCCN3CCCC3=O)n2)cc1 | 104 to 114 °C
O=C(O)Cc1nc(-c2ccc(Cl)cc2)oc1-c1ccoc1 | 218 to 219 °C
O=C(NC1CCN(C2CCCCC2)C1)c1cccc(Br)c1 (configuration not stated) | 128 to 130 °C
O=C(O)CC[C@@H](C(=O)OCc1ccccc1)n1c2ccccc2c2ccccc21 | 100 °C
O=C(O)CNC1CCc2ccccc2C1 (configuration not stated) | 223 to 227 °C
COC(C)(C)OCC(C)C1CCC2C3C=CC4=CC(=O)C5OC5C4(C)C3CCC12C (configuration not stated) | 150 to 151 °C
CCOC(=O)C(=NC1CCCCC1)c1cccn1C | 35 to 36 °C
O=S1(=O)c2cccc3cccc(c23)N1CCN1CCN(c2ccc(O)cc2)CC1 | 235 °C
COC(=O)C(O)C(O)C1CC1 (configuration not stated) | 54 to 57 °C
Cc1nc(S(=O)Cc2ccc(Cl)cc2)nc2c1CCCC2 (configuration not stated) | 127 °C
CC(=O)OCC1OC(SCCCc2ccccc2)C(OC(C)=O)C(OC(C)=O)C1OC(C)=O (configuration not stated) | 73 to 74 °C
Cc1ccc(F)cc1C(=O)Nc1ccc(C(=O)O)cc1 | 272 to 275 °C
CSc1ncccc1NC(=O)CCCCCCCCSc1nc2ccccc2s1 | 107 to 108 °C
COc1nccc2c1C(c1ccccc1C(F)(F)F)C(C(=O)OCCN(C)C)=C(C)N2 (configuration not stated) | 137 to 138 °C
CCNC(=O)NCCC1CCc2ccc3nc(C)oc3c21 (configuration not stated) | 136 to 138 °C
CCOc1ccc(F)c(CCN=C(N)Nc2ccc(Br)cn2)c1Cl | 169 to 172 °C
C[C@@H](Nc1ncnc2[nH]c(-c3ccc(C(=O)O)cc3)cc12)c1ccccc1 | > 350 °C
Cc1c(CC(C)(C)C(=O)O)n(Cc2ccc(Cl)cc2)c2ccc(OCc3ccc4ccccc4n3)cc12 | 215 to 217 °C
CC1CCc2c(ccc(F)c2-n2ccnc2)N1 (configuration not stated) | 162 to 164 °C
CCOC(=O)c1ccc(C#CC(O)c2cccc3c2C(C)(C)CCS3)cc1 (configuration not stated) | 108 °C
Cc1ccc(-c2ccc3c(c2)C=C(C(=O)Nc2ccc(CN4CCCCC4)cc2)CCC3)cc1 | 192 to 193 °C

SMILES | melting point
Cc1ccc(N(C)CCC(C)NCC(O)c2ccc(O)c(C(N)=O)c2)cc1 (configuration not stated) | 123 to 126 °C
CC(=O)NC(C)c1ccc(CN2CCN(c3ccc(F)cc3)CC2)cc1 (configuration not stated) | 101 to 103 °C
CC=C1C=C(OC)N=C(N)N1 | 119 to 122 °C
COc1ccc(NC(=O)c2ccc(F)c(F)c2)cc1NCc1cccs1 | 187 to 189 °C
COC(=O)c1cccc(CBr)c1[N+](=O)[O-] | 91 to 95 °C
O=C1Nc2ccccc2N(C(=O)CN2CCCCC2CN2CCCC2)c2cscc21 (configuration not stated) | 205 to 207 °C
CCOC(=O)CCCN=c1sc2ccccc2s1 | 35 to 36 °C
N#CCC(=O)Nc1ccc(-c2ncn(-c3ccc(OC(F)(F)F)cc3)n2)cc1 | 250 to 252 °C
Nc1nc(Cl)cc(NCC2(CO)CCC2)n1 | 192 to 194 °C
Fc1ccc(-c2cncc(CNCCOc3cccc4ccccc34)c2)cc1 | 92 to 94 °C
CNCCn1nc2c3c(c(Cl)ccc31)C(=O)c1c(OCc3ccccc3)ccc(OCc3ccccc3)c1-2 | 171 to 176 °C
CC(C)C(=O)Nc1ccn(C)c1 | 125 to 126 °C
O=C1C(Cl)=C(NC2CCCC2)C(=O)c2ccccc21 | 81 to 83 °C
OCc1cnoc1-c1ccc(F)c(Cl)c1 | 106 to 107 °C
COC(=O)Oc1ccc(OC)cc1 | 33 to 34 °C
Cc1nc2ccc(F)cc2c(=O)n1C1CCC(=O)NC1=O (configuration not stated) | 273 to 275 °C
COC(=O)c1ccc(CNC(=O)c2[nH]c(-c3cccs3)cc2-c2ccc(F)cc2)cn1 | 174 to 175 °C
CCC1OCCn2c1nc(C(=O)NCc1ccc(F)cc1-n1ncnc1C)c(OCc1ccccc1)c2=O (configuration not stated) | 163 °C
N[C@@H](Cc1ccccc1)C(=O)N(CC1CC(Cl)=NO1)C(=O)OCc1ccccc1 (some centres not stated) | 141 to 148 °C
c1ccc2c(c1)c1ccccc1c1[nH]cnc21 | > 375 °C
CC1(C)C(=O)Nc2cc(C(=O)Nc3ccccc3)ccc21 | 205 to 206 °C
O=C(CCN1CCN(c2ccccc2)CC1)c1ccc2c(c1)Cc1cc(C(=O)CCN3CCN(c4ccccc4)CC3)ccc1O2 | 206 to 208 °C
CCC(O)(CC(=O)OC(C)(C)C)c1cc[nH]c(=O)c1 (configuration not stated) | 167 °C
NC(=O)c1ccc(-c2cnc3[nH]c(=O)n(CC4CCOCC4)c3n2)cc1 | 273 to 275 °C
COc1ccc(CC(C(=O)O)S(C)(=O)=O)cc1C(=O)NCc1ccc(C(F)(F)F)cc1 (configuration not stated) | 158 to 159 °C
CN1C=CC(c2ccccc2)=C(O)C1 | 154 to 157 °C

SMILES | melting point
COc1ccc2oc(Cc3cc(C(F)(F)F)cc(C(F)(F)F)c3)c(CC#N)c2c1 | 112 °C
CC(=O)NC[C@H]1CN(c2ccc(N3CCC(F)(COS(C)(=O)=O)CC3)c(F)c2)C(=O)O1 | 182 to 183 °C
CCOC(=O)Cc1nnc2c(CC(C)C)nc(-c3ccccc3)cn12 | 105 to 107 °C
COc1ccc(/C=C/c2c(Cl)cncc2Cl)c2cc(-c3ccncc3)oc12 | 204 to 206 °C
COc1ccc(C(=O)NC2CCCCC2)c2c1OCC2C(=O)OCc1ccccc1 (configuration not stated) | 178 to 179 °C
Cc1ccc([N+](=O)[O-])cc1S(=O)(=O)N1CCOCC1 | 114 to 115 °C
CCOc1cc2c(c3c1OC(C)(C)C3)C(c1cccc(NC(=O)CSC)c1)=NC(C)(C)C2 | 162 to 163 °C
CC(NC(C)CN(CC(C)NC(C)=C1C(=O)CC(C)(C)CC1=O)C(=O)/C=C\C(=O)O)=C1C(=O)CC(C)(C)CC1=O (configuration not stated) | 68 to 70 °C
NCc1ccccc1C1CCN(c2cc3c(cc2F)c(=O)c(C(=O)O)cn3C2CC2)C1 (configuration not stated) | 245 to 247 °C
O=C(O)CC1(CC(O)=NO)CCCC1 | 70 to 74 °C
COC(=O)COc1ccc2cc(CNC(=O)c3cnn(-c4ccc(Cl)cc4)c3C(F)(F)F)ccc2c1Br | 206 to 207 °C
COc1cc(C(=O)N(C(C)C)C2CCCCC2)ccc1Cn1c(CN(C)C)nc2cccnc21 | 124 to 125 °C
CCOC(=O)N(C)CC(N)=S | 91 to 93 °C
COC(=O)CCn1c(=O)n2n(c1=O)C(C(=O)O)C=CC2 (configuration not stated) | 150 to 153 °C
CC(C)c1nc(Cc2ccccc2)c2c(c1O)COC2 | 232 to 233 °C
C=CCOC(=O)c1c(-c2ccncc2)[nH]c(-c2ccncc2)c1C | 224 °C
CC(C)c1[nH][nH]c(=O)c1Cc1ccc2ccccc2c1 | 143 to 145 °C
COc1cc(O)cc(C)c1C=CC(=O)c1ccc(O)cc1 | 197 to 198 °C
O=[N+]([O-])c1ccc(F)c(CO)c1 | 50 to 53 °C
COc1cc(-c2nc3ccc(OCCCCl)cc3n2Cc2ccccc2)cc(OC)c1OC | 118 °C
CC(=O)N[C@H](C(=O)N1C[C@@H]2C(=O)CCC(c3ccccc3)(c3ccccc3)[C@@H]2C1)c1ccccc1 | 190 °C
O=C(Nc1ccc2cn[nH]c2c1)C(=O)N1CCC(Cc2ccc(F)cc2)CC1 | 162 to 164 °C
O=C(O)c1cc(OCCCOc2cccc(-c3ccccc3)c2)cc(OCCCOc2cccc(-c3ccccc3)c2)c1 | 65 to 69 °C
ClCCOc1cccc2ncccc12 | 75 to 78 °C
CSCCOC(=O)N(C)c1nnc(-c2cccnc2)s1 | 126 to 128 °C
COC1=C(OC)C(=O)c2cc(NC(C)=O)ccc2C1=O | 226 to 228 °C

SMILES | melting point
O=C(NCCCn1cc(Cn2ccnc2)c2ccccc21)Nc1ccccc1 | 177 to 178 °C
CCNC(=O)Nc1n[nH]c2ccc(-c3ncccc3Cl)cc12 | 178 to 180 °C
CCOC(=O)CCCCn1c(=O)[nH]c2ccc(F)cc2c1=O | 131 to 132 °C
O=C(Nc1ccc(Cl)c(Cl)c1)c1cc(Br)ccc1O | 249 to 251 °C
CCCCSc1c2sc3ccccc3nc-2ccc1=O | 72 °C
NS(=O)(=O)c1cccc2c1C(Cl)=CC2 | 100 to 101 °C
Cc1c(-c2ccccc2)oc2c(C(=O)OCCN3CCCCC3)cccc2c1=O | 85 to 86 °C
c1ccc([C@H]2OC[C@@H](OCc3ccccn3)CO2)cc1 | 95 to 98 °C
CCCN1CC(CSC)=C[C@H]2Cc3n[nH]cc3C[C@@H]21 (relative stereo) | 133 to 134 °C
CCCCn1c(=O)c2c(NCC)n[nH]c2n(Cc2ccc(OC)cc2)c1=O | 234 to 236 °C
COc1cc(C(=O)c2ncc3ccc(NS(C)(=O)=O)cn23)ccc1[N+](=O)[O-] | 249 °C
CN1CCC(Sc2ccc3[nH]c(=O)n(C)c3c2)CC1 | 196 to 198 °C
CCOC(=O)C(=O)c1csc(NC(=O)Nc2ccccc2)n1 | 217 to 220 °C
CC(C)(C)CC(C)(C)c1cc(-n2nc3ccc(Sc4ccccc4)cc3n2)c(O)c(C(C)(C)c2ccccc2)c1 | 124 to 125 °C
O=C(O)Cc1c(C(=O)c2ccc(Cl)cc2)[nH]c2cc(C(F)(F)F)ccc12 | 155 to 160 °C
C#Cc1ccc(OC)c(C#N)c1 | 100 to 101 °C
Cc1ccccc1-c1cccc2c1CCn1cc(-c3ccccc3)nc1C2OC1CCN(C)CC1 (configuration not stated) | 94 °C
CC(C)(C)OC(=O)NCC(O)CNC(=O)OC(C)(C)C | 92 °C
Cc1nc(C)c(Cl)c(NCc2ccc(Oc3ccc4ncc([N+](=O)[O-])n4n3)cc2)n1 | 203 °C
CS(=O)(=O)Nc1ccc(F)c(C(O)CN)c1 (configuration not stated) | 176 to 179 °C
CCOP(=O)(OCC)c1c(C)c2c(c(C)c1-c1c(OC)ccc3ccccc13)COC2 | 77.3 to 78.9 °C
NS(=O)(=O)c1cccc(-c2cccc(-c3nc(-c4ccc(C(F)(F)F)nc4)cc(C(F)F)n3)c2)c1 | 222 °C
CC1(C)CNc2cc(C(F)(F)F)ccc2C1=O | 121 to 122 °C
COc1ccccc1-c1nn(C(C)C(=O)N(C)C)cc1Cl (configuration not stated) | 74 to 77 °C
